In patent publication US7078389B2, “Chemically modified oligonucleotide for site-directed mutagenesis” (priority 1993, dated 2006):

Assays:
[1] = tested on: supF gene within the pSP189 SV40 vector; assay: Sequence analysis and colony hybridization of supF mutants from SV40 vector; parameters: species or system monkey
Description: Colony hybridization. Ampicillin resistant colonies of SY204 carrying shuttle vector plasmids with supF gene mutations, along with appropriate control colonies, were grown on LB/ampicillin plates and transferred onto replica nylon filters for additional growth and in situ lysis to allow colony hybridization by standard methods. The DNA was fixed to the filters by UV crosslinking, and the filters were incubated in 6×SSC, 5×Denhardt's solution, 0.5% SDS, and 5×10^5 cpm/ml of ^32P-labeled oligonucleotides at 42° C. for 18 hours. The filters were washed in 1×SSC and 0.1% SDS for 30 minutes at 25° C. and then in 1×SSC and 0.1% SDS at 42° C. for 2 hours. […] Binding of the oligonucleotide probes was determined by autoradiography.
DNA Sequencing. DNA was prepared for sequencing by isolating DNA from a 3 ml bacterial culture using a Promega Magic Miniprep kit (Promega, Madison, Wis.). DNA sequence data was obtained by direct chain termination sequencing of the plasmid DNA using automated methods.
Sequence analysis of targeted mutations. A set of 20 mutants generated in the supF gene in the SV40 vector by psoralen-AG10 (at the 1000:1 ratio) and UVA light were subjected to DNA sequence analysis.
In the analysis of mutagenesis in SV40 vectors, it is often difficult to determine if identical mutations arose independently or if they were the result of a single mutational event amplified by subsequent vector replication. In order to exclude the possibility that such sibling mutations were isolated in these experiments, use was made of an advantageous feature of the pSP189 system, in which over 100,000 different, random-sequence 8 base pair oligonucleotides were cloned into a region of pSP189 next to the supF gene. The vector DNA is prepared en masse from this library of vector clones containing the different 8 bp sequences. In this way, at the same time that the sequence of the supF gene in a mutant vector is ascertained, the 8 base pair signature sequence in that particular plasmid molecule can also be identified by reading a few extra bases further in the sequence data. This enables comparisons between the 8 bp signature sequences in plasmids bearing the same supF mutation to see if they are siblings from the same mutational event or if they are independent mutations.
Instead of direct sequencing, a technique of differential oligonucleotide hybridizations was used (Sidransky et al., Science 252:706–709 (1991)). In this assay, undertaken in an effort to streamline mutant analysis, ampicillin resistant bacterial colonies containing mutant supF genes were grown on nylon filters to allow nucleic acid hybridizations.

[2] = tested on: supF gene contained within the chromosomes of the LN12 cells; assay: Targeted mutagenesis in mouse fibroblast LN12 cells; format: cell-based
From the text: For the purposes of achieving targeted mutagenesis in mouse cells in vivo, the assay system to detect mutations in the chromosomes of mouse fibroblasts in culture developed by Glazer et al. was used (Proc. Natl. Acad. Sci. USA 83:1041–1044, (1986), which is incorporated by reference herein). This system allows detection and analysis of mutations occurring in the supF gene contained within the chromosomes of the LN12 cells, a derivative of mouse L cells into whose chromosomes multiple copies of the lambda supF shuttle vector were inserted.
The LN12 cells, growing in culture, were treated with the oligonucleotide, psoralen-AG10, which is designed to target mutations to base pair 167 in the supF gene via sequence-specific triplex formation and thereby delivery of the psoralen to that site. This oligonucleotide was used also in the lambda and the SV40 experiments. The oligonucleotide was added directly to the growth medium of the cells at various concentrations in the range of 0.1 to 50 μM. Two hours later, the cells were exposed to 0.07 J/cm^2 of UVA irradiation, the cells were allowed to grow for an additional 2 to 4 days, and then DNA was prepared from the cells to analyze for mutations in the supF gene. Using lambda in vitro packaging extracts to rescue the supF gene in the lambda vector from within the mouse DNA (as described by Glazer et al., cited above), mutations were detected in approximately 0.05% of the supF genes. Over forty mutant supF genes have been isolated in these recent experiments (from all concentrations of oligonucleotide studied), but the sequence of only one has been determined so far.

Q: “4′-hydroxymethyl-4,5′,8-trimethylpsoralen-^5′AGGAAGGGGG^3′ (DNA NAGGAAGGGGG; 4'-hydroxymethyl-4,5',8-trimethylpsoralen conjugated at 5' end, further chemistry not given here) [pso-AG10]” was tested. Which “Share of sequenced mutations with the same base change at the targeted base pair” value ([1]; 20 mutants, 1000:1 ratio, UVA, DNA sequencing) did it give?
A: The value was 55%.

Q: And the “Share of mutants carrying the T:A to A:T mutation at bp 167” value ([1]; 42 mutants, colony hybridization)?
A: Its value is 52%.

Q: And the “Share of all viral genomes with intended base change (T:A to A:T at bp 167)” value ([1]; 1000:1 ratio, UVA)?
A: The value was “over 4%”.

Q: What about the “Number of colonies with hybridization specific to the 167 mutant probe” value ([1]; of 19 colonies assayed, colony hybridization) of the same substance?
A: The value was 9.

Q: What about the “Number of sequenced mutations with T:A to A:T transversion at base pair 167” value ([1]; of 20 mutants, 1000:1 ratio, UVA, DNA sequencing) of the same substance?
A: The value was 11.

Q: What about the “Number of point mutations at base pairs adjacent to the targeted base pair” value ([1]; of 20 sequenced mutants) of the same substance?
A: Its value is 3.

Q: What about the “Number of small deletions including or abutting the targeted base pair” value ([1]; of 20 sequenced mutants) of the same substance?
A: Its value is 6.

Q: What about the “Number of mutants carrying the T:A to A:T mutation at bp 167” value ([1]; of 42 mutants, colony hybridization (including 20 sequenced)) of the same substance?
A: Its value is 22.

Q: And the “Share of mutations that are the same T:A to A:T transversion, data taken together” value ([1]; sequencing and hybridization together)?
A: The value was “at least 50%”.

Q: What about the “Share of supF genes with mutations” value ([2]; 0.1 to 50 μM in growth medium, 2 hours, UVA 0.07 J/cm^2, 2 to 4 days growth) of the same substance?
A: The value was “approximately 0.05%”.

Q: And the “Relation of supF mutation frequency to oligonucleotide concentration” value ([2]; 0.1 to 50 μM, FIG. 6)?
A: Its value is “dose-response relationship”.

Q: And the “Sequence of the one supF mutant determined” value ([2]; LN12 cells)?
A: Its value is “T:A to A:T transversion exactly at the targeted base pair”.
